This is an account of results in PMC9964117, “Inhibitors against Two PDZ Domains of MDA-9 Suppressed Migration of Breast Cancer Cells” (International Journal of Molecular Sciences, 2023).

Molecules are shown by their SMILES. Substitutions are numbered along the chain they refer to. Read-outs that look alike come from different tables or passages of the source.

Series [1] has as its target T1, MDA-9 PDZ1 domain (Homo sapiens, UniProt O00560).
T1 construct: the N-terminal (1–109aa), PDZ1 (110–193aa), PDZ2 (194–274aa); made in house
T1 sequence (O00560 110-193): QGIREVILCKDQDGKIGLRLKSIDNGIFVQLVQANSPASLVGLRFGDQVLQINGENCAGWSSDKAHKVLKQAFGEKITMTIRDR
Also noted: method as in PMID 28011764. Particulars: read-out: Affinity for MDA-9 PDZ1 domain; cited from earlier work.

Series [2] deals with T2, MDA-9 PDZ2 domain (Homo sapiens, UniProt O00560).
T2 construct: PDZ1 (110–193aa), PDZ2 (194–274aa), and the C-terminal (275–298aa); made in house
T2 sequence (O00560 194-274): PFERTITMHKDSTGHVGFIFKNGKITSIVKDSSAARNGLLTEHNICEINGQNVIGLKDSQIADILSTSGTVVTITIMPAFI
The conditions noted are these: cited from earlier work.

The test system of another series is glioma cells. Also noted: method as in PMID 28011764. Particulars: cited from earlier work.
The test system of another series is brain-tumor-bearing mice. Also on record: method as in PMID 28011764. Particulars: cited from earlier work.
The subject of series [3] is prostate cancer or neuroblastoma. Also noted: method as in PMID 31406249, PMID 31345950. Particulars: cited from earlier work.
Series [4] concerns the target T1, MDA-9 PDZ1 domain. The series is described as follows: NMR chemical shift perturbation titration (1H-15N HSQC). The conditions noted are these: 25 °C, pH 7.0, read-out: Binding affinity (Kd) to MDA-9 PDZ1 domain from dose-dependent CSPs. As to the method: (§1) NMR fragment-based screening was performed at 25 °C using an Agilent 700 MHZ spectrometer equipped with a 96-well autosampler (Agilent Technologies, Santa Clara, CA, USA). ^1H-^15N HSQC spectra were acquired from the ^15N-labeled MDA-9 PDZ1 and PDZ2 domains (0.05 mM). A fragment library of 890 compounds (Chembridge, SanDiego, CA, USA) and an approved drug library of 540 compounds (TargetMol, Boston, MA, USA) were pooled into cocktails, respectively, and each cocktail contained 10 compounds at 0.2 mM [39, 40]. The ^1H-^15N HSQC spectra were measured on an Agilent 700 MHz spectrometer at ligand/protein molar ratios ranging from 0.0 to 4.0.
(§2) The ^15N-labelled PDZ1 and PDZ2 domains of MDA-9 were concentrated in the HEPES buffer (20 mM HEPES, 100 mM NaCl, 1 mM EDTA, 1 mM DTT, pH 7.0) to 0.05 mmol/L. The screening fragment compounds were then titrated to these ^15N-labeled MDA-9 PDZ1 or PDZ2 domain, respectively. Each HSQC profile was collected (at molar ratios of 0.0, 2.0, 4.0, 8.0, 16.0, and 32.0 at 25 °C) using an Agilent 700 MHz spectrometer. NMR spectra were analyzed using Sparky. The chemical shift changes (Δδ), relative to the free form of the PDZ1 or PDZ2 domain, were calculated as follows:(1) Δδ=(∆δH^1)^2+(0.2ΔδN^15)^2 where ∆δH^1 and ΔδN^15 denote the chemical shift changes of ^1H and ^15N, respectively. […]

The target of series [5] is T2, MDA-9 PDZ2 domain. The series is described as above. Type of series: binding. As to the method:
as §1, §2

The target of series [6] is T3, MTSL-labeled C118/C166S mutant of MDA-9 PDZ1 domain (Homo sapiens, UniProt O00560, C166S).
T3 construct: the N-terminal (1–109aa), PDZ1 (110–193aa), PDZ2 (194–274aa); made in house
T3 sequence (O00560 110-193 C166S): T1 sequence (O00560 110-193) with C57S
The series is described as follows: NMR CSP titration against MTSL-labeled mutant. Particulars: dose-dependent CSP, read-out: Binding affinity to MTSL-labeled C118/C166S mutant of PDZ1. Here is the method:
(§3) The ^15N-labelled PDZ1 and PDZ2 domains of MDA-9 were concentrated in the HEPES buffer (20 mM HEPES, 100 mM NaCl, 1 mM EDTA, 1 mM DTT, pH 7.0) to 0.05 mmol/L. The screening fragment compounds were then titrated to these ^15N-labeled MDA-9 PDZ1 or PDZ2 domain, respectively. Each HSQC profile was collected (at molar ratios of 0.0, 2.0, 4.0, 8.0, 16.0, and 32.0 at 25 °C) using an Agilent 700 MHz spectrometer. NMR spectra were analyzed using Sparky. The chemical shift changes (Δδ), relative to the free form of the PDZ1 or PDZ2 domain, were calculated as follows:(1) Δδ=(∆δH^1)^2+(0.2ΔδN^15)^2 where ∆δH^1 and ΔδN^15 denote the chemical shift changes of ^1H and ^15N, respectively.
(§4) According to this equation, the binding constants can be best fitted with a binding mode of 1:1: Δδobs=Δδmax([P]t+[L]t+Kd)−([P]t+[L]t+Kd)^2−4[P]t[L]t/2[P]t where [P]t and [L]t represent the concentrations of the protein and ligand, respectively. Δδobs represents the observed chemical shift changes, relative to the free-state protein.
(§5) The ^15N-labeled PDZ1 C118/C166S mutant and the PDZ2 C239S/D256C mutant were expressed by the method described above. After the dilution of the protein solution to 0.5 mg/mL with a 1-fold excess of Tris(2-carboxyethyl) phosphine (TCEP), the solution was incubated for 2 h at room temperature. […] WATERGATE spectra with T2 delays of 0.04 and 0.8 s were recorded. […]

Series [7] concerns the target T1, MDA-9 PDZ1 domain. The series is described as follows: Competitive fluorescence polarization with FITC-peptide. Particulars: 80 μM PDZ1, 500 nM FITC-peptide; read-out: Binding affinity to PDZ1 from competitive FP. As to the method: (§6) For competitive FP experiments with the FITC-peptide, the PDZ1 domain concentration was set at 80 μM and the PDZ2 domain concentration at 250 μM. After that, each aliquot of the 200 μL sample contained 500 nM of the FITC-peptide, 80 μM of the PDZ1 or 250 μM of the PDZ2 domain, as well as different concentrations of PI1A or PI2A. A concentration range of 0–200 μM was administered for PI1A while a concentration range of 0–600 μM was administered for PI2A. Samples were repeated 3 times for each experimental group. The dissociation constants for the interactions between ligands and proteins were derived from the complete competitive FP equation proposed by Gerhard Wagner et al. (Biochemistry 2004). […]
On the technique in general: Polarisation of emitted light reports the rotation of a fluorescent probe.

For series [8], the system named is MDA-MB-231 cells. The series is described as follows: CCK8 cell viability assay. Type of series: cell-based. Particulars: 48 h treatment. As to the method:
The MDA-MB-231 cells were obtained by a gift. CCK8 assay was used to assess the effects of PI1A or PI2A on the viability of MDA-MB-231 cells. Cells were placed in 96-well plates and treated with different concentrations of DMSO, PI1A, or PI2A for 48 h. Then, 10 μL of CCK8 solution was added to the wells. The 96-well plates were incubated in a CO2 incubator at 37 °C for another 1 h. OD values were measured at 450 nm using a CLARIOstar (BMG LABTECH) plate reader.
(Tetrazolium assays rely on reduction of a dye to a coloured formazan, in cell work by metabolically active cells.)

Series [9] has as its system MDA-MB-231 cells. The series is described as follows: Wound-healing assay. The conditions noted are these: 100 μM each compound, 0 and 24 h, relative to DMSO. Type of series: cell-based. Here is the method: MDA-MB-231 cells were spread in 6-well plate culture dishes, where sh-MDA-9 cells were used as a positive control. DMSO (control), PI1A 100 μM, PI2A 100 μM, and both PI1A and PI2A 100 μM were added to the MDA-MB-231 cells, respectively. On newly grown monolayer cells, […] of the tip was used to line the central area of cell growth. Next, excess cells were washed away with PBS buffer. The cells were then cultured for the experimentally-determined period of time (0 h or 24 h). Lastly, the cell culture plates were removed separately and the peripheral cells were observed under a microscope to determine whether they had migrated to the scratched area.

In series [10] the target is T4, A255V mutant of MDA-9 PDZ2 domain (Homo sapiens, UniProt O00560, A255V).
T4 construct: PDZ1 (110–193aa), PDZ2 (194–274aa), and the C-terminal (275–298aa); made in house
T4 sequence (O00560 194-274 A255V): T2 sequence (O00560 194-274) with A62V
The series is described as follows: NMR CSP titration against mutant. Type of series: binding. Here is the method:
as §3, §4

The target in series [11] is T5, G210A mutant of MDA-9 PDZ2 domain (Homo sapiens, UniProt O00560, G210A).
T5 construct: PDZ1 (110–193aa), PDZ2 (194–274aa), and the C-terminal (275–298aa); made in house
T5 sequence (O00560 194-274 G210A): T2 sequence (O00560 194-274) with G17A
The series is described as follows: NMR CSP titration against mutant. Type of series: binding. Particulars: relative to wild type. As to the method:
as §3, §4

Series [12] concerns the target T6, H208A mutant of MDA-9 PDZ2 domain (Homo sapiens, UniProt O00560, H208A).
T6 construct: PDZ1 (110–193aa), PDZ2 (194–274aa), and the C-terminal (275–298aa); made in house
T6 sequence (O00560 194-274 H208A): T2 sequence (O00560 194-274) with H15A
The series is described as follows: NMR CSP titration against mutant. Type of series: binding. Here is the method: as §3, §4

Series [13] deals with T7, V209A mutant of MDA-9 PDZ2 domain (Homo sapiens, UniProt O00560, V209A).
T7 construct: PDZ1 (110–193aa), PDZ2 (194–274aa), and the C-terminal (275–298aa); made in house
T7 sequence (O00560 194-274 V209A): T2 sequence (O00560 194-274) with V16A
The series is described as follows: NMR CSP titration against mutant. Type of series: binding. Particulars: relative to wild type. As to the method:
as §3, §4

Series [14] addresses T8, V209I mutant of MDA-9 PDZ2 domain (Homo sapiens, UniProt O00560, V209I).
T8 construct: PDZ1 (110–193aa), PDZ2 (194–274aa), and the C-terminal (275–298aa); made in house
T8 sequence (O00560 194-274 V209I): T2 sequence (O00560 194-274) with V16I
The series is described as follows: NMR CSP titration against mutant. Type of series: binding. As to the method:
as §3, §4

Series [15] has as its target T9, MTSL-labeled C239S/D256C mutant of MDA-9 PDZ2 domain (Homo sapiens, UniProt O00560, C239S/D256C).
T9 construct: PDZ1 (110–193aa), PDZ2 (194–274aa), and the C-terminal (275–298aa); made in house
T9 sequence (O00560 194-274 C239S/D256C): T2 sequence (O00560 194-274) with C46S, D63C
The series is described as follows: NMR CSP titration against MTSL-labeled mutant. Type of series: binding. The conditions noted are these: dose-dependent CSP. As to the method: as §3, §4, §5

Series [16] concerns the target T2, MDA-9 PDZ2 domain. The series is described as follows: Competitive fluorescence polarization with FITC-peptide. Particulars: 250 μM PDZ2, 500 nM FITC-peptide; read-out: Binding affinity to PDZ2 from competitive FP. As to the method: as §6

Take `Cc1cc(NC(=O)c2nc3nc4c(c(=O)n3[nH]2)CCC4)c(C)cc1NC(=O)CCc1nnc(-c2ccccc2)o1` [PDZ1i]: the Kd on MDA-9 PDZ1 domain [1] is 21 µM. Also, the “Binding to MDA-9 PDZ2 domain (in words)” value on MDA-9 PDZ2 domain [2] is given as “did not bind significantly”. Moreover, in the series with glioma cells, the “Invasion of glioma cells” value is “inhibited the invasion”. Besides, in the series on brain-tumor-bearing mice, the “Survival rate in brain-tumor-bearing mice” value is given as “improved survival rate”. Moreover, the “In vivo activity against prostate cancer or neuroblastoma” value in [3] was “exhibited in vivo activity”.

As for `Cc1cc(Nc2ccccc2C(=O)O)ccc1Cl` [PI1A], the Kd came out at 110 µM at MDA-9 PDZ1 domain [4], 250 µM in series [6] and 170 µM on MDA-9 PDZ1 domain [7]. Also, the “Binding to MDA-9 PDZ2 domain (in words)” value at MDA-9 PDZ2 domain [5] is given as “did not bind”. Moreover, the “Toxicity / viability of MDA-MB-231 cells (CCK8)” value with MDA-MB-231 cells [8] is “not toxic”. The “Migration of MDA-MB-231 cells (wound closure)” value in the series on MDA-MB-231 cells [9] is “suppressed the migration”.

Consider `O=C(O)c1cc(-c2ccc(F)cc2)n[nH]1` [PI2A], for which the Kd is more than 1000 µM on MDA-9 PDZ1 domain [4]; 500 µM at MDA-9 PDZ2 domain [5] (25 °C, pH 7.0, read-out: Binding affinity (Kd) to MDA-9 PDZ2 domain by NMR titration); more than 5000 µM in [10]; more than 5000 µM in series [14]; 510 µM at MDA-9 PDZ2 domain [16]. For the same molecule, the “Binding affinity to G210A mutant of PDZ2 (in words)” value in series [11] was “reduced binding affinities”. Moreover, the “Binding to H208A mutant of PDZ2 (in words)” value in [12] is “incapable of binding”. Also, the “Binding affinity to V209A mutant of PDZ2 (in words)” value in series [13] is on record as “reduced binding affinities”. Besides, in [15], the “Effect of MTSL labeling of C239S/D256C PDZ2 mutant on inhibitor binding affinity (in words)” value is “did not disrupt”. Also, the “Toxicity / viability of MDA-MB-231 cells (CCK8)” value with MDA-MB-231 cells [8] is “not toxic”. Besides, the “Migration of MDA-MB-231 cells (wound closure)” value with MDA-MB-231 cells [9] is recorded as “suppressed the migration”.
